# In US20260250320A1, “LIPIDATED PEPTIDE INHIBITORS OF INTERLEUKIN-23 RECEPTOR” (Janssen Pharmaceutica NV, priority 2023, published 2026):
# *1 amine or outer side, *2 acyl side, *3 side chain or, on linkers, in order; H or OH if unused. Where a SMILES comes first, the peptide text is derived from it. Bridges are numbered along the chain shown (N, C = ends). Side-chain parts run from the residue outwards. [ ]: non-standard residue; d: D form. The star is where a group is joined. ξ: configuration not given here. X29 = C[C@H](CCCCNC(=O)COCCOCCNC(=O)COCCOCCNC(=O)CC[C@H](NC(=O)CCCCCCCCCCCCCCCCC(=O)O)C(=O)O)C(=O)C[C@H](C(=O)[*:1])C(C)(C)S[*:2]; X34 = O=C(O)CCCCCCCCCCCCCCCCC(=O)C[C@@H](CCC(=O)NCCOCCOCC(=O)NCCOCCOCCN*)C(=O)O; X16 = CC(C)(S[*:2])[C@H](CC(=O)CCOCCOCC[N+](C)(C)C)C(=O)[*:1]; Me3N+(CH2)2O(CH2)2O(CH2)2CO = C[N+](C)(C)CCOCCOCCC(=O)*; PEG12 = NCCOCCOCCOCCOCCOCCOCCOCCOCCOCCOCCOCCOCCC(=O)O; CH2CH2OCH2CH2OCH2CH2NMe3+ = C[N+](C)(C)CCOCCOCC*; Trp(7-Me) = Cc1cccc2c(C[C@H](N)C(=O)O)c[nH]c12; C20 diacid = O=C(O)CCCCCCCCCCCCCCCCCCC(=O)*; C18 diacid = O=C(O)CCCCCCCCCCCCCCCCC(=O)*; γGlu = O=C(O)[C@H](CCC(=O)[*:2])N[*:1]; 2Nal = N[C@@H](Cc1ccc2ccccc2c1)C(=O)O; AEF = NCCOc1ccc(C[C@H](N)C(=O)O)cc1; X2 = C[N+](C)(C)C[C@@H](CC(=O)O)N*; 3Pal = N[C@@H](Cc1cccnc1)C(=O)O; Lys(Me) = CNCCCC[C@H](N)C(=O)O; NMeK = CN[C@@H](CCCCN)C(=O)O; Pen = CC(C)(S)[C@H](N)C(=O)O; Suc = O=C(CCC(=O)[*:2])[*:1]; Thp = NC1(C(=O)O)CCOCC1; X1 = C[N+](C)(C)CCCCC*; ξN = NC(=O)CC(N)C(=O)O; AEEA = NCCOCCOCC(=O)O; Sar = CNCC(=O)O
# What was measured:
# IL-23R = molecular target: T1, IL-23R (Homo sapiens, UniProt Q5VWK5); assay: IL23R Reporter Assay; assay type: cell-based; details: HEK293 cells containing IL-23R, IL-12Rβ1 and STAT-inducible firefly luciferase reporter; 10 ng/mL IL-23 (EC90); 5 h
# T1 construct: HEK293 cells containing IL-23R, IL-12Rβ1 and a firefly luciferase reporter gene driven by a STAT-inducible promoter (Promega); host or cells: HEK293
# T1 sequence (Q5VWK5 24-629): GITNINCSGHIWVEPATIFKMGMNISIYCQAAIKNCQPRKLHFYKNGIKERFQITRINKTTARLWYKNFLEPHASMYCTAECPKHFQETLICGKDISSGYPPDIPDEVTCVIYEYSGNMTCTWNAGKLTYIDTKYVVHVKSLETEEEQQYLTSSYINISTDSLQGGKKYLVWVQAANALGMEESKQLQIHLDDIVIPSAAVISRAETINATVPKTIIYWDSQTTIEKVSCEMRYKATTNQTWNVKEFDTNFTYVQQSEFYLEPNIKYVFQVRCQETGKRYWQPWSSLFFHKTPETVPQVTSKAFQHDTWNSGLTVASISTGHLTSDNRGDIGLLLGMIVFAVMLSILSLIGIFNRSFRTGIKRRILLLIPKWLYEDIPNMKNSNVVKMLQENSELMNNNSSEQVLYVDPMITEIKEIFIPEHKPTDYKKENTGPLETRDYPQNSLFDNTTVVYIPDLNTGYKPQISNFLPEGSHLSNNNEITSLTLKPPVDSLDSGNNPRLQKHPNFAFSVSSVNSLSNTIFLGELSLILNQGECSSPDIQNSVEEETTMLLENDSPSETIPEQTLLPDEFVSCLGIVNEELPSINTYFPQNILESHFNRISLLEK
# In short: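 IC50 values were fitted with a 4-parameter Hill equation to luciferase signal, scaled between IL-23-only wells (0% inhibition) and 30 μM reference inhibitor (100%). The readout was a STAT-inducible reporter in IL-23R/IL-12Rβ1 HEK293 cells, stimulated with added 10 ng/mL IL-23 (EC90) for 5 h at 37° C and developed with BioGlo.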
# [1] = tested on: IL-23-stimulated phosphorylated STAT3 in peripheral blood mononuclear cells (PBMCs); assay: PBMC pSTAT3 Assay; assay type: cell-based; details: PBMCs from healthy donors; 30 min preincubation with peptide; IL-23 5 ng/mL for 30 min; phospho-STAT3 by MSD
# In short: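 Phospho-STAT3 quantified by Meso Scale assay in lysates of PBMCs exposed to IL-23 (5 ng/mL, 30 min, 37 °C) after 30 min peptide pretreatment. Cells were cryopreserved donor PBMCs activated 4 days with anti-CD3 plus IL-1β (100 ng/mL) and starved ~4 h; IC50 reported.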
Structure (SMILES),IC50 (IL-23R) [nM],IC50 [1] [nM]
"CC(=O)NCCCC[C@@H]1NC(=O)[C@H](Cc2c[nH]c3c(C)cccc23)NC(=O)[C@H]([C@@H](C)O)NC(=O)[C@H](CC(N)=O)NC(=O)[C@@H](NC(=O)[C@@H](CCCCNC(=O)CCOCCOCCOCCOCCOCCOCCOCCOCCOCCOCCOCCOCCNC(=O)CC[C@H](NC(=O)CCCCCCCCCCCCCCCCCCC(=O)O)C(=O)O)NC(C)=O)C(C)(C)SSC(C)(C)[C@@H](C(=O)N[C@@H](Cc2ccc(OCCN)cc2)C(=O)N[C@@H](Cc2ccc3ccccc3c2)C(=O)NC2(C(=O)N[C@@H](CCCCNC(C)=O)C(=O)N[C@@H](CC(N)=O)C(=O)N[C@@H](Cc3cccnc3)C(=O)N(C)CC(N)=O)CCOCC2)NC1=O [compound 104, MeCO-k(PEG12gEC20OH)-Pen(3)-N-T-7MeW-K(Ac)-Pen(3)-AEF-2Nal-THP-K(Ac)-N-3Pya-Ser-CONH2] (Ac-[dK]([PEG12-γGlu-C20 diacid])[Pen]NT[Trp(7-Me)]K(Ac)[Pen][AEF][2Nal][Thp]K(Ac)N[3Pal][Sar]-NH2; disulfide 2-7)",< 50,< 0.5
"CC(=O)N(C)CCCC[C@@H]1NC(=O)[C@H](Cc2c[nH]c3c(C)cccc23)NC(=O)[C@H]([C@@H](C)O)NC(=O)[C@H](CC(=O)N(C)C)NC(=O)[C@@H](CC(=O)CCOCCOCC[N+](C)(C)C)C(C)(C)SSC(C)(C)[C@@H](C(=O)N[C@@H](Cc2ccc(OCCOCCOCC[N+](C)(C)C)cc2)C(=O)N[C@@H](Cc2ccc3ccccc3c2)C(=O)NC2(C(=O)N[C@@H](CCCCN(C)C(C)=O)C(=O)NC(CC(N)=O)C(=O)N[C@@H](Cc3cccnc3)C(=O)N(C)[C@@H](CCCCNC(=O)COCCOCCNC(=O)COCCOCCNC(=O)CC[C@H](NC(=O)CCCCCCCCCCCCCCCCCCC(=O)O)C(=O)O)C(N)=O)CCOCC2)NC1=O (stereo partly shown) [compound 112, cPEG3aCO-Pen(3)-N(N(Me)2)-T-7MeW-K(NMeAc)-Pen(3)-APEG3F-2Nal-THP-K(NMeAc)-N-3Pya-NMeK(PEG2PEG2gEC20OH)-CONH2] (D(NMe2)T[Trp(7-Me)][Lys(Me)](Ac)[Pen]Y(CH2CH2OCH2CH2OCH2CH2NMe3+)[2Nal][Thp][Lys(Me)](Ac)[ξN][3Pal][NMeK]([AEEA-AEEA-γGlu-C20 diacid])-NH2; linker N-5 via X16)",50 to 500,0.5 to 5
"CC(=O)NCCCC[C@@H]1NC(=O)[C@H](Cc2c[nH]c3c(C)cccc23)NC(=O)[C@H]([C@@H](C)O)NC(=O)[C@H](CC(N)=O)NC(=O)[C@@H](NC(C)=O)C(C)(C)SSC(C)(C)[C@@H](C(=O)N[C@@H](Cc2ccc(OCCN)cc2)C(=O)N[C@@H](Cc2ccc3ccccc3c2)C(=O)NC2(C(=O)N[C@@H](CCC(=O)O)C(=O)N[C@@H](CC(N)=O)C(=O)N[C@@H](Cc3cccnc3)C(=O)N(C)CC(=O)N[C@@H](CCCCNC(=O)COCCOCCN(C)C(=O)COCCOCCN(C)C(=O)CC[C@@H](C(=O)O)N(C)C(=O)CCCCCCCCCCCCCCCCCc3nnn[nH]3)C(N)=O)CCOCC2)NC1=O [compound 3, MeCO-Pen(3)-N-T-7MeW-K(Ac)-Pen(3)-AEF-2Nal-THP-E-N-3Pya-Sar-K(PEG2NMePEG2NMegENMeC18Tetrazole)-CONH2]",< 50,< 0.5
"CC(=O)N(C)CCCC[C@@H]1NC(=O)[C@H](Cc2c[nH]c3c(C)cccc23)NC(=O)[C@H]([C@@H](C)O)NC(=O)[C@H](CC(=O)N(C)C)NC(=O)[C@@H](NC(=O)CCOCCOCC[N+](C)(C)C)C(C)(C)SSC(C)(C)[C@@H](C(=O)N[C@@H](Cc2ccc(OCCCCC[N+](C)(C)C)cc2)C(=O)N[C@@H](Cc2ccc3ccccc3c2)C(=O)NC2(C(=O)N[C@@H](CCCCN(C)C(C)=O)C(=O)N[C@@H](CC(N)=O)C(=O)N[C@@H](Cc3cccnc3)C(=O)N(C)CC(=O)NCCOCCOCCNC(=O)COCCOCCNC(=O)CC[C@H](CC(=O)CCCCCCCCCCCCCCCCC(=O)O)C(=O)O)CCOCC2)NC1=O [compound 145, cPEG3aCO-Pen(3)-N(N(Me)2)-T-7MeW-K(NMeAc)-Pen(3)-TMAPF-2Nal-THP-K(NMeAc)-N-3Pya-Sar-CO(PEG2PEG2gEC18OH)] ({Me3N+(CH2)2O(CH2)2O(CH2)2CO}-[Pen]D(NMe2)T[Trp(7-Me)][Lys(Me)](Ac)[Pen]Y(X1)[2Nal][Thp][Lys(Me)](Ac)N[3Pal][Sar]-X34; disulfide 1-6)",50 to 500,≥ 5

# Continued, in another order:
IC50 (IL-23R) [nM],Structure (SMILES),IC50 [1] [nM]
< 50,"CC(=O)N(C)CCCC[C@@H]1NC(=O)[C@H](Cc2c[nH]c3c(C)cccc23)NC(=O)[C@H]([C@@H](C)O)NC(=O)[C@H](CC(=O)N(C)C)NC(=O)[C@@H](CC(=O)[C@H](C)CCCCNC(=O)COCCOCCNC(=O)COCCOCCNC(=O)CC[C@H](NC(=O)CCCCCCCCCCCCCCCCC(=O)O)C(=O)O)C(C)(C)SSC(C)(C)[C@@H](C(=O)N[C@@H](Cc2ccc(OCCOCCOCC[N+](C)(C)C)cc2)C(=O)N[C@@H](Cc2ccc3ccccc3c2)C(=O)NC2(C(=O)N[C@@H](CCCCN(C)C(C)=O)C(=O)N[C@@H](CC(N)=O)C(=O)N[C@@H](Cc3cccnc3)C(=O)N(C)CC(=O)N(C)C)CCOCC2)NC1=O [compound 159, cPEG3aCO-k(PEG2PEG2gEC18OH)-Pen(3)-N(N(Me)2)-T-7MeW-K(NMeAc)-Pen(3)-APEG3F-2Nal-THP-K(NMeAc)-N-3Pya-Sar-CON(Me)2] (D(NMe2)T[Trp(7-Me)][Lys(Me)](Ac)[Pen]Y(CH2CH2OCH2CH2OCH2CH2NMe3+)[2Nal][Thp][Lys(Me)](Ac)N[3Pal][Sar]-NMe2; linker N-5 via X29)",< 0.5
50 to 500,"CC(=O)N[C@H](CCCNC(=N)N)C(=O)N[C@@H]1C(=O)N[C@@H](CC(N)=O)C(=O)N[C@@H]([C@@H](C)O)C(=O)N[C@@H](Cc2c[nH]c3c(C)cccc23)C(=O)N[C@@H](CCCCNC(=O)COCCOCCNC(=O)COCCOCCNC(=O)CC[C@H](NC(=O)CCCCCCCCCCCCCCCCC(=O)O)C(=O)O)C(=O)N[C@H](C(=O)N[C@@H](Cc2ccc(OCCNC(=O)CCC(=O)N[C@H](CC(=O)O)C[N+](C)(C)C)cc2)C(=O)N[C@@H](Cc2ccc3ccccc3c2)C(=O)NC2(C(=O)N[C@@H](CCC(=O)O)C(=O)N[C@@H](CC(N)=O)C(=O)N[C@@H](Cc3cccnc3)C(=O)N(C)CC(N)=O)CCOCC2)C(C)(C)SSC1(C)C [compound 36, MeCO-r-Pen(3)-N-T-7MeW-K(PEG2PEG2gEC18OH)-Pen(3)-AEF(d)-2Nal-THP-E-N-3Pya-Sar-CONH2] (Ac-[dR][Pen]NT[Trp(7-Me)]K([AEEA-AEEA-γGlu-C18 diacid])[Pen][AEF]([Suc-X2])[2Nal][Thp]EN[3Pal][Sar]-NH2; disulfide 2-7)",< 0.5
< 50,"CC(=O)NCCCC[C@@H]1NC(=O)[C@H](Cc2c[nH]c3c(C)cccc23)NC(=O)[C@H]([C@@H](C)O)NC(=O)[C@H](CC(N)=O)NC(=O)[C@@H](NC(=O)[C@@H](CCCNC(=N)N)NC(=O)COCCOCCNC(=O)COCCOCCNC(=O)CC[C@H](NC(=O)CCCCCCCCCCCCCCCCC(=O)O)C(=O)O)C(C)(C)SSC(C)(C)[C@@H](C(=O)N[C@@H](Cc2ccc(OCCCCC[N+](C)(C)C)cc2)C(=O)N[C@@H](Cc2ccc3ccccc3c2)C(=O)NC2(C(=O)N[C@@H](CCC(=O)O)C(=O)N[C@@H](CC(N)=O)C(=O)N[C@@H](Cc3cccnc3)C(=O)N(C)CC(N)=O)CCOCC2)NC1=O [compound 83, HOC18gEPEG2PEG2CO-r-Pen(3)-N-T-7MeW-K(Ac)-Pen(3)-TMAPF-2Nal-THP-E-N-3Pya-Sar-CONH2] ({C18 diacid-γGlu-AEEA-AEEA}-[dR][Pen]NT[Trp(7-Me)]K(Ac)[Pen]Y(X1)[2Nal][Thp]EN[3Pal][Sar]-NH2; disulfide 2-7)",< 0.5
< 50,"CC(=O)NCCCC[C@@H]1NC(=O)[C@H](Cc2c[nH]c3c(C)cccc23)NC(=O)[C@H]([C@@H](C)O)NC(=O)[C@H](CC(N)=O)NC(=O)[C@@H](NC(=O)COCCOCCNC(=O)COCCOCCNC(=O)CC[C@H](NC(=O)CCCCCCCCCCCCCCCCC(=O)O)C(=O)O)C(C)(C)SSC(C)(C)[C@@H](C(=O)N[C@@H](Cc2ccc(OCCN)cc2)C(=O)N[C@@H](Cc2ccc3ccccc3c2)C(=O)NC2(C(=O)N[C@@H](CCCCNC(=O)CCC(=O)N[C@H](CC(=O)O)C[N+](C)(C)C)C(=O)N[C@@H](CC(N)=O)C(O)N[C@@H](Cc3cccnc3)C(=O)N(C)CC(N)=O)CCOCC2)NC1=O (stereo partly drawn) [compound 44, HOC18gEPEG2PEG2CO-Pen(3)-N-T-7MeW-K(Ac)-Pen(3)-AEF-2Nal-THP-K(d)-N-3Pya-Sar-CONH2]",< 0.5
